The subject of data set [1] is Bax. Description: Bax:Bax FRET oligomerization assay. Format: biochemical, human. To be noted: 10 μM, liposomes and tBid.
In data set [2] the target is T1, Bax (Homo sapiens, UniProt Q07812). Briefly: DSS chemical crosslinking of Bax oligomers in liposomes, immunoblot. Type of data set: biochemical. To be noted: for large oligomers of Bax (DSS crosslinking): high concentrations, compared with positive control Bcl-XL. In general terms: A western blot detects proteins with antibodies after separation by electrophoresis.
T1 sequence (Q07812 whole entry): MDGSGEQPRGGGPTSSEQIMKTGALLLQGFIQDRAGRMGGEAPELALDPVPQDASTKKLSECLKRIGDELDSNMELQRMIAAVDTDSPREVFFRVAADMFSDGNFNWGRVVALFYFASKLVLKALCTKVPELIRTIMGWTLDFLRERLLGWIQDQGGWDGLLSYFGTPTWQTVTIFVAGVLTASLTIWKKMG

Data set [3] deals with HCT-116 cells. To be noted: 5 or 10 μM pretreatment; WT, Bax-/- and Bak-/- HCT-116 cells; actinomycin D.
In data set [4] the test system is Bax. Type of data set: biochemical. The settings on record: 40 μM.
Data set [5] relates to HCT-116 cells. Description: Immunofluorescence for activated Bax. Type of data set: cell-based, human. To be noted: 10 μM for 3 hr before ActD for 24 hr, HCT-116 WT.
The target of data set [6] is T1, Bax. Briefly: tBid/Bax-mediated liposome permeabilization. The settings on record: for IC50: read-out: IC50, concentration of compound required to inhibit 50% of the maximal dye release, liposomes, tBid and Bax, ANTS/DPX release.
Data set [7] addresses T1, Bax. Description: Bax binding to mitochondria by differential centrifugation. Format: biochemical. The settings on record: preincubation of Bax or mitochondria with compound.
The subject of data set [8] is primary embryonic mouse brain cortical neurons. Description: Glutamate excitotoxicity, lactate dehydrogenase release. Format: cell-based.
Data set [9] addresses T1, Bax. The settings on record: not told.
The test system of data set [10] is Bax. Description: Bax:membrane FRET. To be noted: 10 μM preincubated with 20 nM Alexa568-Bax, 20 nM BIM, DiD liposomes. Type of data set: biochemical, human.

For `COCCOCOc1ccc2c(c1)O[C@H](CN)[C@H]2N(Cc1ccc(Br)cc1)C(=O)[C@H](Cc1ccccc1)NC(=O)c1ccccc1` [MSN-125], in the data set with Bax [1], the “FRET between DAC-Bax-134C and NBD-Bax-126C (Bax oligomerization)” value is on record as “reduced FRET”. The “large oligomers of Bax (DSS crosslinking)” value on Bax [2] is listed as “inhibited large oligomers of Bax to a similar extent as the positive control Bcl-XL”. For the same compound, the “Bax dimerization (DSS crosslinking)” value on Bax [2] (highest concentration tested) is on record as “inhibited Bax dimerization to a limited extent”. Further, in the data set with HCT-116 cells [3], the “survival and growth after ActD treatment and replating” value is recorded as “conferred survival”. In addition, in the data set on Bax [4], the “disulfide crosslinks of double-cysteine Bax L59C/L76C and L59C/M79C” value is reported as “not inhibited by MSN-125”. In the data set on Bax [4] (IVT and TNT systems), the “disulfide crosslinking of Bax-L63C with Bax-A112C” value is “not inhibited by MSN-125”. In the data set with HCT-116 cells [5], the “Bax-6A7 positivity (exposure of N-terminal Bax epitope) after ActD” value is given as “prevented” and the “cytochrome c release from mitochondria in cells after ActD” value was “prevented”. The “survival and growth after STS treatment and replating” value in the data set on BMK cells (5 μM compound, BMK cells, staurosporine) is “conferred long-term survival and growth”. In the data set with BMK cells (5 or 10 μM pretreatment, WT, Bax-/- and Bak-/- BMK cells, 75 nM ActD), the “survival and growth after ActD treatment and replating” value is “conferred survival”. In addition, on Bax [6] (individual assays, normalized to reactions without compound), the “concentration-dependent inhibition of liposome permeabilization by tBid and Bax” value is given as “inhibited dye release from liposomes in a concentration-dependent fashion”. Moreover, at Bax [6], the IC50 was about 4000 nM. The “Bax binding to mitochondria” value on Bax [7] is listed as “did not inhibit Bax binding to mitochondria”. Moreover, in data set [8] (5 μM added directly after 30 min of 25 or 100 μM glutamate, read after 24 hr), the “neuronal damage after glutamate excitotoxicity (LDH release)” value is on record as “substantially reduced neuronal damage”. The “neuronal damage by compound alone” value in data set [8] (5 μM, 24 hr, no glutamate) is reported as “did not result in neuronal damage”.

In the case of `NCCCN(Cc1ccc(Br)cc1)C(=O)[C@H](Cc1ccccc1)NC(=O)c1ccccc1` [DAN004], at Bax [2], the “large oligomers of Bax (DSS crosslinking)” value was “inhibited large oligomers of Bax to a similar extent as the positive control Bcl-XL”. The “protection against ActD treatment” value with BMK cells (sub-toxic doses) was “did not confer protection against ActD treatment”. Further, at Bax [9], the “inhibition of heat-activated Bax-mediated liposome permeabilization” value was “inhibited heat-activated Bax-mediated liposome permeabilization equivalently”. Moreover, the IC50 on Bax [6] was about 700 nM. Also, the “Bax binding to membranes by FRET” value with Bax [10] is on record as “did not inhibit Bax binding to membranes”.
